Patent US20120202690A1, “HERBICIDAL COMPOUNDS” (SYNGENTA LIMITED, priority 2009, published 2012)
Values belong to the molecule of their own block, whether it stands above or below them.

Key:
[1] = test system: Alopecurus myosuroides (ALOMY); experiment: Post-emergence biological efficacy, glasshouse, 500 or 1000 g/ha, evaluated after 13 days (100=total damage to plant; 0=no damage to plant); format: in vivo; conditions: Alopecurus myosuroides, 312 h, read-out: Percentage damage caused to weed species, post-emergence, ALOMY; for pest or weed control at 1000 g/ha: rate 1,000 g/ha
Outline: (§1)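 Damage is scored on pot-grown plants, sown in standard soil and sprayed after emergence, that were held post-treatment in a glasshouse (24/16° C. day/night, 14 hours light, 65% humidity).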

[2] = test system: Echinochloa crusgaffi (ECHCG); experiment: as above; format: in vivo; conditions: Echinochloa, 312 h, read-out: Percentage damage caused to weed species, post-emergence, ECHCG; for pest or weed control at 1000 g/ha: rate 1,000 g/ha
Outline: as §1

[3] = test system: Amaranthus retroflexus (AMARE); experiment: as above; format: in vivo; conditions: Amaranthus retroflexus, 312 h, read-out: Percentage damage caused to weed species, post-emergence, AMARE; for pest or weed control at 1000 g/ha: rate 1,000 g/ha
Outline: as §1

[4] = test system: Ipomoea hederaceae (IPOHE); experiment: as above; format: in vivo; conditions: Ipomoea, 312 h, read-out: Percentage damage caused to weed species, post-emergence, IPOHE; for pest or weed control at 1000 g/ha: rate 1,000 g/ha
Outline: as §1

Solanum nigrum (SOLNI) [5] = experiment: as above; format: in vivo; conditions: Solanum nigrum, 312 h, read-out: Percentage damage caused to weed species, post-emergence, SOLNI; for pest or weed control at 1000 g/ha: rate 1,000 g/ha
Outline: as §1

Setaria faberi (SETFA) [6] = experiment: as above; format: in vivo; conditions: Setaria faberi, 312 h, read-out: Percentage damage caused to weed species, post-emergence, SETFA; for pest or weed control at 1000 g/ha: rate 1,000 g/ha
Outline: as §1

[7] = test system: Alopecurus myosuroides (ALOMY); experiment: Pre-emergence biological efficacy, glasshouse, 1000 g/ha, evaluated after 13 days (100=total damage to plant; 0=no damage to plant); format: in vivo; conditions: Alopecurus myosuroides, 312 h, read-out: Percentage damage caused to weed species, pre-emergence, ALOMY; for pest or weed control at 1000 g/ha: rate 1,000 g/ha
Outline: (§2)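 Glasshouse conditions were controlled at 24/16° C. day/night with a 14-hour photoperiod and 65% humidity; pots contained standard soil into which seeds had been sown, and plants were watered twice daily.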

[8] = test system: Amaranthus retroflexus (AMARE); experiment: as above; format: in vivo; conditions: Amaranthus retroflexus, 312 h, read-out: Percentage damage caused to weed species, pre-emergence, AMARE; for pest or weed control at 1000 g/ha: rate 1,000 g/ha
Outline: as §2

[9] = test system: Ipomoea hederaceae (IPOHE); experiment: as above; format: in vivo; conditions: Ipomoea, 312 h, read-out: Percentage damage caused to weed species, pre-emergence, IPOHE; for pest or weed control at 1000 g/ha: rate 1,000 g/ha
Outline: as §2

[10] = test system: Echinochloa crus-galli (ECHCG); experiment: as above; format: in vivo; conditions: Echinochloa crus-galli, 312 h, read-out: Percentage damage caused to weed species, pre-emergence, ECHCG; for pest or weed control at 1000 g/ha: rate 1,000 g/ha
Outline: as §2

Solanum nigrum (SOLNI) [11] = experiment: as above; format: in vivo; conditions: Solanum nigrum, 312 h, read-out: Percentage damage caused to weed species, pre-emergence, SOLNI; for pest or weed control at 1000 g/ha: rate 1,000 g/ha
Outline: as §2

Setaria faberi (SETFA) [12] = experiment: as above; format: in vivo; conditions: Setaria faberi, 312 h, read-out: Percentage damage caused to weed species, pre-emergence, SETFA; for pest or weed control at 1000 g/ha: rate 1,000 g/ha
Outline: as §2

melting point: 211 °C
Compound: COC(=O)c1nc(-c2ccc(Cl)c(F)c2)nc2c1n(Cc1ccccc1)c(=O)c(=O)n2Cc1ccccc1 [Compound 95-160, 2-(4-chloro-3-fluorophenyl)-5,8-dibenzyl-6,7-dioxo-4-methoxycarbonyl-5,6,7,8-tetrahydropteridine]
pest or weed control at 250 g/ha ([1]; rate 250 g/ha): 10%
pest or weed control at 250 g/ha ([2]; rate 250 g/ha): 10%
pest or weed control at 250 g/ha ([3]; rate 250 g/ha): 20%
pest or weed control at 250 g/ha ([4]; rate 250 g/ha): 20%
pest or weed control at 250 g/ha (Solanum nigrum (SOLNI) [5]; rate 250 g/ha): 30%
pest or weed control at 250 g/ha (Setaria faberi (SETFA) [6]; rate 250 g/ha): 40%
pest or weed control at 250 g/ha ([7]; rate 250 g/ha): 0%
pest or weed control at 250 g/ha ([8]; rate 250 g/ha): 0%
pest or weed control at 250 g/ha ([9]; rate 250 g/ha): 0%
pest or weed control at 250 g/ha ([10]; rate 250 g/ha): 0%
pest or weed control at 250 g/ha (Solanum nigrum (SOLNI) [11]; rate 250 g/ha): 0%
pest or weed control at 250 g/ha (Setaria faberi (SETFA) [12]; rate 250 g/ha): 0%

melting point: 146 °C
Compound: COC(=O)c1nc(-c2ccc(Cl)c(OC)c2F)nc2c1N(Cc1ccccc1)CCN2Cc1ccccc1 [Compound 95-168, 2-(4-Chloro-2-fluoro-3-methoxyphenyl)-5,8-dibenzyl-4-methoxy-carbonyl-5,6,7,8-tetrahydropteridine]
pest or weed control at 1000 g/ha [1]: 0%
pest or weed control at 1000 g/ha [2]: 0%
pest or weed control at 1000 g/ha [3]: 0%
pest or weed control at 1000 g/ha [4]: 10%
pest or weed control at 1000 g/ha (Solanum nigrum (SOLNI) [5]): 10%
pest or weed control at 1000 g/ha (Setaria faberi (SETFA) [6]): 0%
pest or weed control at 1000 g/ha [7]: 0%
pest or weed control at 1000 g/ha [8]: 0%
pest or weed control at 1000 g/ha [9]: 0%
pest or weed control at 1000 g/ha [10]: 0%
pest or weed control at 1000 g/ha (Solanum nigrum (SOLNI) [11]): 0%
pest or weed control at 1000 g/ha (Setaria faberi (SETFA) [12]): 0%

melting point: 217 to 219 °C
Compound: COC(=O)c1nc(C2CC2)nc2c1Nc1ccccc1N2 [Compound 119-28, 2-Cyclo-propyl-4-methoxy-carbonyl-5,10-dihydro-benzo[g] pteridine]
pest or weed control at 1000 g/ha [1]: 0%
pest or weed control at 1000 g/ha [2]: 0%
pest or weed control at 1000 g/ha [3]: 20%
pest or weed control at 1000 g/ha [4]: 10%
pest or weed control at 1000 g/ha (Solanum nigrum (SOLNI) [5]): 20%
pest or weed control at 1000 g/ha (Setaria faberi (SETFA) [6]): 0%
pest or weed control at 1000 g/ha [7]: 0%
pest or weed control at 1000 g/ha [8]: 0%
pest or weed control at 1000 g/ha [9]: 0%
pest or weed control at 1000 g/ha [10]: 0%
pest or weed control at 1000 g/ha (Solanum nigrum (SOLNI) [11]): 0%
pest or weed control at 1000 g/ha (Setaria faberi (SETFA) [12]): 0%

melting point: 160 to 162 °C
Compound: COC(=O)c1nc(-c2ccc(Cl)c(OC)c2F)nc2ncccc12 [Compound 123-50, 2-(4-chloro-2-fluoro-3-methoxyphenyl)-4-methoxycarbonyl-pyrido[2,3-d]pyrimidine]
pest or weed control at 1000 g/ha [1]: 0%
pest or weed control at 1000 g/ha [2]: 10%
pest or weed control at 1000 g/ha [3]: 0%
pest or weed control at 1000 g/ha [4]: 10%
pest or weed control at 1000 g/ha (Solanum nigrum (SOLNI) [5]): 20%
pest or weed control at 1000 g/ha (Setaria faberi (SETFA) [6]): 10%
pest or weed control at 1000 g/ha [7]: 0%
pest or weed control at 1000 g/ha [8]: 0%
pest or weed control at 1000 g/ha [9]: 0%
pest or weed control at 1000 g/ha [10]: 0%
pest or weed control at 1000 g/ha (Solanum nigrum (SOLNI) [11]): 0%
pest or weed control at 1000 g/ha (Setaria faberi (SETFA) [12]): 0%
